{
  "source": "patent US20260042731A1",
  "about": "“(2,4-DICHLOROPHENOXY)ACETIC ACID ANALOGS” (CORTEVA AGRISCIENCE LLC, priority 2022, published 2026)",
  "key": {"[1]": {"system": "glyphosate resistant Conyza canadensis (L.) (ERICA), horseweed", "assay": "Postemergence herbicide evaluation, growth of Conyza canadensis (ERICA)", "assay_type": "in vivo", "conditions": "Erigeron canadensis, post-emergence, read-out: Ave. ERICA, percent reduction in plant size relative to the untreated control; for pest or weed control at 280 g/ha: 280 g ae/ha; for pest or weed control at 560 g/ha: 560 g ae/ha"}, "[2]": {"system": "Amaranthus rudis (AMATA), tall water hemp", "assay": "Postemergence herbicide evaluation, growth of Amaranthus rudis (AMATA)", "assay_type": "in vivo", "conditions": "Amaranthus tuberculatus, post-emergence, read-out: Ave. AMATA, percent reduction in plant size relative to the untreated control; for pest or weed control at 280 g/ha: 280 g ae/ha; for pest or weed control at 560 g/ha: 560 g ae/ha"}, "[3]": {"system": "Abutilon theophrasti (ABUTH), velvetleaf", "assay": "Postemergence herbicide evaluation, growth of Abutilon theophrasti (ABUTH)", "assay_type": "in vivo", "conditions": "Abutilon theophrasti, post-emergence, read-out: AVE. ABUTH, percent reduction in plant size relative to the untreated control; for pest or weed control at 280 g/ha: 280 g ae/ha; for pest or weed control at 560 g/ha: 560 g ae/ha"}, "[4]": {"system": "Ambrosia artemisiifolia (AMBEL), common ragweed", "assay": "Postemergence herbicide evaluation, growth of Ambrosia artemisiifolia (AMBEL)", "assay_type": "in vivo", "conditions": "Ambrosia artemisiifolia, post-emergence, read-out: AVE. AMBEL, percent reduction in plant size relative to the untreated control; for pest or weed control at 280 g/ha: 280 g ae/ha; for pest or weed control at 560 g/ha: 560 g ae/ha"}, "[5]": {"assay": "Volatility of compounds measured by thermogravimetric analysis (TGA)", "assay_type": "physicochemical"}, "[6]": {"system": "weeds ABUTH, AMATA, AMBEL, CHEAL, ERICA", "assay": "Postemergence herbicide evaluation, overall average % weed control (ABUTH, AMATA, AMBEL, CHEAL, ERICA)", "assay_type": "in vivo", "conditions": "post-emergence, read-out: Overall Ave % Weed Control; for pest or weed control at 280 g/ha: 280 g ae/ha; for pest or weed control at 560 g/ha: 560 g ae/ha"}, "[7]": {"system": "Chenopodium album (CHEAL), common lambsquarters", "assay": "Postemergence herbicide evaluation, growth of Chenopodium album (CHEAL)", "assay_type": "in vivo", "conditions": "Chenopodium album, post-emergence, read-out: Ave. CHEAL, percent reduction in plant size relative to the untreated control; for pest or weed control at 280 g/ha: 280 g ae/ha; for pest or weed control at 560 g/ha: 560 g ae/ha"}},
  "note": "Where “and” joins values, the source holds several entries; their conditions need not be identical. Equal values may be shown once. Read-outs that look alike come from different tables or passages of the source.",
  "data": [
    {"smiles": "O=C(COc1ccc(Cl)cc1Cl)O/N=C/c1ccccn1", "note": "[Compound A32]", "values": [
      {"measurement": "pest or weed control at 280 g/ha", "setting": "[1]; 168 h, 7 DAA", "value": 87.5, "unit": "%"},
      {"measurement": "pest or weed control at 560 g/ha", "setting": "[1]; 168 h, 7 DAA", "value": 75, "unit": "%"},
      {"measurement": "pest or weed control at 280 g/ha", "setting": "[1]; 336 h, 14 DAA", "value": 97, "unit": "%"},
      {"measurement": "pest or weed control at 560 g/ha", "setting": "[1]; 336 h, 14 DAA", "value": 99.5, "unit": "%"},
      {"measurement": "pest or weed control at 280 g/ha", "setting": "[1]; 504 h, 21 DAA", "value": 99, "unit": "%"},
      {"measurement": "pest or weed control at 560 g/ha", "setting": "[1]; 504 h, 21 DAA", "value": 98, "unit": "%"},
      {"measurement": "pest or weed control at 280 g/ha", "setting": "[2]; 168 h, 7 DAA", "value": 70, "unit": "%"},
      {"measurement": "pest or weed control at 560 g/ha", "setting": "[2]; 168 h, 7 DAA", "value": 90, "unit": "%"},
      {"measurement": "pest or weed control at 280 g/ha", "setting": "[2]; 336 h, 14 DAA", "value": 96, "unit": "%"},
      {"measurement": "pest or weed control at 560 g/ha", "setting": "[2]; 336 h, 14 DAA", "value": 87.5, "unit": "%"},
      {"measurement": "pest or weed control at 280 g/ha", "setting": "[2]; 504 h, 21 DAA", "value": 60, "unit": "%"},
      {"measurement": "pest or weed control at 560 g/ha", "setting": "[2]; 504 h, 21 DAA", "value": 94, "unit": "%"},
      {"measurement": "pest or weed control at 280 g/ha", "setting": "[3]; 168 h, 7 DAA", "value": 55, "unit": "%"},
      {"measurement": "pest or weed control at 560 g/ha", "setting": "[3]; 168 h, 7 DAA", "value": 67.5, "unit": "%"},
      {"measurement": "pest or weed control at 280 g/ha", "setting": "[3]; 336 h, 14 DAA", "value": 74, "unit": "%"},
      {"measurement": "pest or weed control at 560 g/ha", "setting": "[3]; 336 h, 14 DAA", "value": 88.5, "unit": "%"},
      {"measurement": "pest or weed control at 280 g/ha", "setting": "[3]; 504 h, 21 DAA", "value": 87.5, "unit": "%"},
      {"measurement": "pest or weed control at 560 g/ha", "setting": "[3]; 504 h, 21 DAA", "value": 98.5, "unit": "%"},
      {"measurement": "pest or weed control at 280 g/ha", "setting": "[4]; 168 h, 7 DAA", "value": 75, "unit": "%"},
      {"measurement": "pest or weed control at 560 g/ha", "setting": "[4]; 168 h, 7 DAA", "value": 75, "unit": "%"},
      {"measurement": "pest or weed control at 280 g/ha", "setting": "[4]; 336 h, 14 DAA", "value": 72.5, "unit": "%"},
      {"measurement": "pest or weed control at 560 g/ha", "setting": "[4]; 336 h, 14 DAA", "value": 92.5, "unit": "%"},
      {"measurement": "pest or weed control at 280 g/ha", "setting": "[4]; 504 h, 21 DAA", "value": 100, "unit": "%"},
      {"measurement": "pest or weed control at 560 g/ha", "setting": "[4]; 504 h, 21 DAA", "value": 100, "unit": "%"},
      {"measurement": "TGA Data (rate of weight loss, volatility)", "setting": "[5]", "value": "0.809 µg/min and 0.87 µg/min"},
      {"measurement": "pest or weed control at 280 g/ha", "setting": "[6]; 168 h, 7 DAA", "value": 74, "unit": "%"},
      {"measurement": "pest or weed control at 560 g/ha", "setting": "[6]; 168 h, 7 DAA", "value": 76.5, "unit": "%"},
      {"measurement": "pest or weed control at 280 g/ha", "setting": "[6]; 336 h, 14 DAA", "value": 87.4, "unit": "%"},
      {"measurement": "pest or weed control at 560 g/ha", "setting": "[6]; 336 h, 14 DAA", "value": 92.6, "unit": "%"},
      {"measurement": "pest or weed control at 280 g/ha", "setting": "[6]; 504 h, 21 DAA", "value": 88.8, "unit": "%"},
      {"measurement": "pest or weed control at 560 g/ha", "setting": "[6]; 504 h, 21 DAA", "value": 97.6, "unit": "%"},
      {"measurement": "pest or weed control at 280 g/ha", "setting": "[7]; 168 h, 7 DAA", "value": 82.5, "unit": "%"},
      {"measurement": "pest or weed control at 560 g/ha", "setting": "[7]; 168 h, 7 DAA", "value": 75, "unit": "%"},
      {"measurement": "pest or weed control at 280 g/ha", "setting": "[7]; 336 h, 14 DAA", "value": 97.5, "unit": "%"},
      {"measurement": "pest or weed control at 560 g/ha", "setting": "[7]; 336 h, 14 DAA", "value": 95, "unit": "%"},
      {"measurement": "pest or weed control at 280 g/ha", "setting": "[7]; 504 h, 21 DAA", "value": 97.5, "unit": "%"},
      {"measurement": "pest or weed control at 560 g/ha", "setting": "[7]; 504 h, 21 DAA", "value": 97.5, "unit": "%"}
    ]}
  ]
}
